Data as given in a melting point compilation (Tetko et al.; mined from patent text by program, amines drawn as free bases though some values may be those of a salt).

| melting point [°C] | SMILES |
| --- | --- |
| 195 to 197 | Cc1ccc(S(=O)(=O)OCC2(CO)OC(n3ccc(=O)[nH]c3=O)C(O)C2OCc2ccccc2)cc1 (stereo unspecified) |
| 79 to 86 | COc1cc2c(cc1Nc1ncc(Cl)c(Nc3ccccc3S(=O)(=O)N(C)C)n1)CCN(Cc1nccn1C)CC2 |
| 108 to 109 | O=C(Oc1ccc([N+](=O)[O-])cc1)OC1CCN(C(=O)Oc2ccc(Oc3ccccc3)cc2)CC1 |
| 137 to 138 | CSc1nnc(-c2ccc3occ(-c4ccccc4Cl)c3c2)o1 |
| 104 | O=C1C(Cl)=C(CC2CCCC(C(F)(F)F)C2)C(=O)c2ccccc21 (stereo unspecified) |
| 135 | COc1cc(CCN2CCN(c3nsc4ccccc34)CC2)c([N+](=O)[O-])cc1OC |
| 147 to 150 | O=C(SC[C@H](SC(=O)c1ccccc1)C(=O)N[C@@H](CO)C(=O)O)c1ccccc1 |
| 108 to 110 | Cc1ccccc1-c1cc(-c2ccc(F)cc2)c(C=C(Br)Br)c(C(C)C)n1 |
| 61.8 to 63 | COc1ccc2cccc(CCOS(=O)(=O)c3ccccc3)c2c1 |
| 174 | CN1CCC(Oc2ccc3ccc(N)nc3n2)CC1 |
| 191 to 193 | CC1CCCC1(Oc1ccc(CC(=O)c2ccc3c(c2)CCC3)cc1)C(=O)O (stereo unspecified) |
| 158 to 159 | COc1ccc(S(=O)(=O)Nc2ccccc2NC(=O)c2ccco2)cc1 |
| 171 to 173 | O=C1NCCc2c(OCc3ccccc3)cccc21 |
| 113 to 115 | COc1ccc(S(=O)(=O)Nc2ccccc2Cl)cc1OC1CCCC1 |
| 320 to 322 | Cn1c(=O)c(=O)n(Cc2ccc(Cl)cc2Cl)c2cc(C(=O)O)ccc21 |
| > 260 | N#CC1=C(C2CC2)Nc2n[nH]cc2C1c1cccc(N2CCOCC2)c1 (stereo unspecified) |
| 129 to 131 | CC(C)(OCc1nn(Cc2ccccc2)c2ccc([N+](=O)[O-])cc12)C(=O)O |
| 149 to 151 | Cc1c(C)n(CC=C(Cl)Cl)c2c(OCc3ccccc3)nncc12 |

| melting point [°C] | SMILES |
| --- | --- |
| < 150 | CCCc1cc(N2CCC(NCC(O)c3nccc4ccccc34)CC2)nc2sc(C(N)=O)c(N)c12 (stereo unspecified) |
| 242 to 244 | Cc1cccc(Nc2cc(Nc3cccc(C)c3)ncn2)c1 |
| 175 to 176 | Clc1ccc2c(c1)C(n1ccnc1)c1ccccc1CS2 (stereo unspecified) |
| 145 to 147 | Clc1ccc(-c2ccccc2Cl)nn1 |
| 141 to 144 | CC(C)n1nc(-c2sc(C(=O)N(C)C)nc2-c2ccccc2)ccc1=O |
| 83 to 84 | CC(CCCc1ccccc1)Oc1cc(O)c2c(c1)OC(C)(C)CC2=O (stereo unspecified) |
| 196 | CS(=O)(=O)c1ccc(-n2nc(C(F)(F)F)cc2-c2ccc(-c3ccco3)cc2)cc1 |
| 175 to 181 | Nc1ccc(Cl)cc1Cc1ccccc1F |
| 170 to 172 | COc1ccc(F)cc1C(C)(C)CC(O)(Cn1ccc(=O)c2ccccc21)C(F)(F)F (stereo unspecified) |
| 258 | C(=C\c1ncc(-c2cnc(-c3ccccc3)nc2)[nH]1)/c1cccnc1 |
| 283 to 285 | O=C1CC(c2cccc(OCc3ccccc3)c2)=Nc2ccc(N3CCOCC3)cc21 |
| 143 to 145 | O=C1C(=O)c2ccccc2C2=C1SCC1(CCN(CC(O)COCc3ccco3)CC1)O2 (stereo unspecified) |
| 213 | Nc1ccc(C(=O)N2CC3CC(CN(Cc4ccc(Cl)cc4)C3)C2)cc1 |
| 202 to 206 | S=C1Nc2ccccc2N2CCN(c3ccccc3)CCN12 |
| 120 to 123 | O=C(NC(=O)C(c1ccccc1)c1ccccc1)OC1CCCC1 |
| 120 to 121 | O=C(Cc1cccnc1)[N+]1([O-])CCC(=C2c3ccc(Cl)cc3CCc3cccnc32)CC1 (stereo unspecified) |
| 183 to 186 | N#Cc1c(N2CCc3ccccc3CC2)[nH]c(=O)[nH]c1=O |

The remaining lines, values behind:

| SMILES | melting point [°C] |
| --- | --- |
| CCn1c(N)c(-c2nccn2COCC[Si](C)(C)C)c(=O)c2ccc(-c3ccc(C(C)C(=O)O)cc3)nc21 (stereo unspecified) | 248 |
| O=C(CCCl)NC(=O)Nc1cc(C(F)(F)F)cc(C(F)(F)F)c1 | 175 |
| CCCc1nc2ccc(Cl)nc2c(=O)[nH]1 | 264 to 266 |
| COCCOC(=O)CC[C@@H](NC(=O)[C@@H](NC(=O)OC(C)(C)C)C(C)C)C(N)=O | 107 to 108 |
| Cc1nnc2n1-c1ccc(C#C[Si](C)(C)C)cc1C(c1ccccc1F)=NC2 | 218 to 219 |
| CCOC(=O)c1c(-c2ccncc2)[nH]c(-c2ccncc2)c1CC | 212 to 215 |
| O=C(O)COc1ccc(SCc2ccc(-c3ccc(C(F)(F)F)cc3)cc2)c2c1CCCO2 | 122 to 124 |
| Clc1ccc2nc(CBr)c(CBr)nc2c1 | 149 to 150 |
| Cc1cc(-n2cnnn2)cc2c1NC(=O)CC2 | 271 to 272 |
| COC(=S)OCC(COC(=S)OC)OCn1cnc2c(=O)[nH]c(N)nc21 | 148 to 150 |
| CCN(CC)c1ccc(C=O)c(OCCN2CCCCC2)c1 | 70 to 72 |
| CCCCOC(=O)CSc1ncnc2c(O)n(C)nc12 | 172 |
| CC(=O)NCCOC(=O)C(Oc1ccc(F)c(C(F)(F)F)c1)c1ccc(F)cc1 (stereo unspecified) | 100 |
| CN(c1ccc(F)c2cc(-c3nccs3)[nH]c12)S(=O)(=O)c1cccs1 | 197 to 198 |
| CCc1[nH]c2cc(F)ccc2c1C1=CCNCC1 | 194 to 196 |
| COc1ccc2c(c1)C(NCc1cc(OC)c(OC)cc1N)CCO2 (stereo unspecified) | 90 to 92 |
| COc1cc2c(cc1OC)C(=O)c1cc3ccccc3cc1C2=O | > 250 |
| CCn1c(CNc2ccncc2)nc2c(C#N)nc(-c3cccc(C(F)(F)F)c3)cc21 | 340 |
| O=C(C[C@@H](NC(=O)C(F)(F)F)C(=O)O)c1ccc(F)c(F)c1 | 136 to 137 |
| O=c1c2cc(Cl)cc(Br)c2ncn1CCCN1CC=C(c2c[nH]c3ccccc23)CC1 | 192 |
| N#CCCc1cccc(O)c1 | 64 to 66 |
| COc1ccc(-c2cncc(OC3SCC(O)C(O)C3O)c2)cc1Cl (stereo unspecified) | 165 |

| SMILES | melting point [°C] |
| --- | --- |
| COc1cc2c(cc1OC)OCCC(C(=O)N1CCN(C(=O)c3cc(OC)c(OC)c(OC)c3)CC1)=C2 | 132 to 134 |
| O=C(O)CCC(=O)c1cccc(S(=O)(=O)Cl)c1 | 73 to 78 |
| CS(=O)(=O)N(N(CCCl)S(=O)(=O)c1ccccc1)S(C)(=O)=O | 114 to 115 |
| CCc1cc2c(O)c(C#N)c(=O)oc2cc1C | 224 to 226 |
| CCOC(=O)C(O)=Cc1ncc(Cc2ccc(F)cc2)s1 | 160 to 162 |
| Cc1ccc(S(=O)(=O)NC(C)(C)C(C)C)cc1 | 80 to 89 |
| CC1(C(F)(F)F)C=C(C(=O)NCCC#N)c2cc([N+](=O)[O-])ccc2O1 (stereo unspecified) | 191 to 193 |
| O=c1cc(S)sc2ccoc12 | > 245 |
| O=C1c2c(Cl)cccc2-n2cncc2[C@@H]2CCN12 | 207 to 208 |
| CON=C(C(C)=C(ON)c1ccccc1C(=NOC)C(=O)OC)c1ccc(F)cc1F | 110 to 119 |
| O=C(CC(CC(=O)c1ccc(F)cc1)c1cccc(-c2nnn[nH]2)c1)c1ccc(F)cc1 | 162 |
| CC(C)CC(NC(=O)C1CCCN1)C(=O)NCC(=O)Oc1c(Cl)c(Cl)c(Cl)c(Cl)c1Cl (stereo unspecified) | 169 to 171 |
| COc1ccc(-c2nc(C(N)=O)sc2-c2ccc(OC)cc2)cc1 | 160 to 162 |
| CCN(CC)CCOC(=O)CCc1cc(S(C)(=O)=O)cc(-c2nc(=O)c3ccc(Cl)cc3s2)n1 | 150 to 152 |
| COC(=O)CC(C)N=c1sc2ccccc2s1 (stereo unspecified) | 78 to 80 |
| CC(C)(C)N(O)C(=O)C1CCC(C2CCCCC2)CC1 (stereo unspecified) | 119 to 120 |
| CC12CCC3c4cccc(N)c4CCC3C1CCC2O (stereo unspecified) | 189 to 192 |
| C=C(C#N)CN1CCC(C(=O)O)CC1 | 109 to 111 |
| CC(C)(C)OC(=O)[C@H](Cc1ccc(O)cc1)NC(=O)c1c(F)cccc1F | 145 to 148 |
| CCCCNC(=S)C(C)Oc1ccc2oc3cc(Cl)ccc3c2c1 (stereo unspecified) | 101 to 104 |
| COC(=O)C1=C(C)NC(C)=C(C(=O)O)[C@H]1c1cccc2nonc12 | 175 |
| O=C(CBr)Nc1cccc(F)c1C(=O)O | 169 to 170 |

| SMILES | melting point [°C] |
| --- | --- |
| Nc1sc2c(c1C(=O)c1ccco1)CCC2 | 149 to 153 |
| Cc1cc(=O)n(-c2ccc(Cl)cc2F)c(=O)n1C | 145 |
| CC(=O)Nc1nc2c(Oc3cc(-c4ccc(C(F)(F)F)cc4NC(=O)CC4CCCCC4)ncn3)cccc2s1 | 288 to 289 |
| NCC(O)COc1cccc(CN2CCCCC2)c1 (stereo unspecified) | 74 to 76.5 |
| COc1ccc(C=Cc2nc3c([nH]2)c(=O)n(C)c(=O)n3C)cc1 | > 320 |
| CC(=O)Oc1c(C(C)C)cc(-c2c3ccccc3cc3sc(C)c(C)c23)cc1C(C)C | 243 to 245 |
| CC(C)CS(=O)(=O)c1ccc(F)c(C#Cc2cc(Cl)ccc2OCC(=O)O)c1 | 141 to 143 |
| CNC(=O)c1cc2c(nc(C)n2C)c2c1CCC(OC)(c1ccccc1C)O2 (stereo unspecified) | 257 to 261 |
| CCOC(=O)c1c(C(F)F)nc(C(F)(F)F)c(C(=O)OCC)c1C1CC1 | 30 to 32 |
| Cc1noc(C)c1Cn1cc(N2C(=O)CN(CCc3cccc(F)c3)C2=O)cn1 | 110 to 111 |
| CCOc1cnn(-c2cc(-c3ccnc(Nc4cccc(Cl)c4)n3)ccn2)c(=O)c1Cl | 196 to 198 |
| C=C(CC(Cl)(Cl)Cl)c1cc(Cl)nc(Cl)c1 | 82 to 83 |
| COc1ccc(C(=O)CCCCCBr)cc1Cl | 104 to 106 |
| CCOC(=O)c1cnc2cc(I)ccc2n1 | 160 to 162 |
| CCOC(=O)c1ccc2c(c1)c(C)c(CBr)n2C(C)=O | 125 to 130 |
| Cc1cccc(Cl)c1OC1CN(C(=O)Cl)C1 | 67 to 69 |
| CCc1nc2c(cnn2CC)c(NC2CCOCC2)c1CNC(=O)c1cccc(C(=O)NCc2ccc(OC)c(-c3cccc(CN4CCN(C)CC4)c3)c2)c1 | 117 to 119 |
| CN(C)c1ccc(-c2cc(F)c(F)cc2-c2ccc(S(C)(=O)=O)cc2)cc1Cl | 129 to 130 |
| CNCCOc1cccc2c1CC(=O)N2 | 153 to 156 |
| N#CCC(=O)Nc1ccc(-n2nc(C(F)(F)F)cc2C(F)(F)F)cc1 | 140 to 143 |
| CC(=O)Nc1cccc(C2=NNC(=O)C3CC23)c1 (stereo unspecified) | 200 to 202 |
| CC(C)(C)OC(=O)NCCNC(=O)C1CCN(C(=O)OC(C)(C)C)CC1 | 172 to 174 |
